In experiment [1] the target is T1, Aromatase (Homo sapiens, UniProt P11511).
T1 sequence (P11511 whole entry): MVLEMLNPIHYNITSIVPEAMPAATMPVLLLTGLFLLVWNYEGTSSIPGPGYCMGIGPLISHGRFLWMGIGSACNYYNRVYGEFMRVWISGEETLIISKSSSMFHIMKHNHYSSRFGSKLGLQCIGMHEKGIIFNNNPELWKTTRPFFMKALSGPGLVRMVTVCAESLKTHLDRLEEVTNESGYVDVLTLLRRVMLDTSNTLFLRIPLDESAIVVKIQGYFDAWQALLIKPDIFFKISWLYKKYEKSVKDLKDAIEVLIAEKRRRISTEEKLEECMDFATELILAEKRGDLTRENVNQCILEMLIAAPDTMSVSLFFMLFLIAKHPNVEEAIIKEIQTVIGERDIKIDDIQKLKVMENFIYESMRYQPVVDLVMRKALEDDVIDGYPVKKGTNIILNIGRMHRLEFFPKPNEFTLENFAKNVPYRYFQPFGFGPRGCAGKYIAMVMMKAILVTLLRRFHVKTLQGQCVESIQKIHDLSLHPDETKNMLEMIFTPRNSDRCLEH
Description: In vitro inhibition of cytochrome P450 19A1 in human placental microsomes

Experiment [2] concerns the target T1, Aromatase. The source holds these as a separate data set.
Description: Apparent inhibition constant (Ki) against Cytochrome P450 19A1

As usually defined, the IC50 is the concentration at which inhibition is half-maximal. What is called Ki is the dissociation constant of the complex between target and ligand, obtained from inhibition or displacement. High values mean weaker binding, low ones tighter binding. At Aromatase [1], `CO[C@@H]1CC2C3CCC(=O)C3(C)CCC2C2(C)CCCC=C12` (some centres undefined) registered an IC50 of 130 nM. This compound yielded a Ki at Aromatase [2] of 12 nM. The compound `CCCCCCCC[C@H]1CC2C(CCC3(C)C(O)CCC23)C2(C)CCCC=C12` (some centres undefined) showed an IC50 at Aromatase [1] of over 50000 nM. In the case of `CCCCC[C@@H]1CC2C(CCC3(C)C(O)CCC23)C2(C)CCCC=C12` (some centres undefined), at Aromatase [1], the IC50 was over 50000 nM. Affinity at Aromatase [2] was put at a Ki of 100000 nM.

Take `CCCCCCCC[C@H]1CC2C3CCC(=O)C3(C)CCC2C2(C)CCCC=C12` (some centres undefined): the IC50 against Aromatase [1] is over 50000 nM. The compound further came in with a Ki on Aromatase [2] of 4100 nM. At Aromatase [1], `CCC[C@@H]1CC2C3CCC(=O)C3(C)CCC2C2(C)CCCC=C12` (some centres undefined) registered an IC50 of 440 nM. Also, on Aromatase [2], the affinity corresponds to a Ki of 51 nM. Taken in the same sequence, the figures for `CC(=O)O[C@H]1CC2C3CCC(=O)C3(C)CCC2C2(C)CCCC=C12` (some centres undefined) were 160 nM and 18 nM.

On Aromatase [1], `CCCCCCCC[C@@H]1CC2C(CCC3(C)C(O)CCC23)C2(C)CCCC=C12` (some centres undefined) yielded an IC50 of over 50000 nM.

Consider `CC[C@H]1CC2C3CCC(=O)C3(C)CCC2C2(C)CCCC=C12` (some centres undefined), for which the IC50 at Aromatase [1] was determined as 110 nM. The compound further returned a Ki on Aromatase [2] of 43 nM. Regarding `CCCCCCCC[C@@H]1CC2C3CCC(=O)C3(C)CCC2C2(C)CCCC=C12` (some centres undefined), the half-inhibitory concentration (IC50) against Aromatase [1] is over 50000 nM. Further, the affinity on Aromatase [2], expressed as Ki, was 2600 nM. On Aromatase [1], `CCC[C@H]1CC2C3CCC(=O)C3(C)CCC2C2(C)CCCC=C12` (some centres undefined) came in with an IC50 of 230 nM. On Aromatase [2], this compound came in with a Ki of 30 nM. The corresponding values for `CC(=O)O[C@@H]1CC2C3CCC(=O)C3(C)CCC2C2(C)CCCC=C12` (some centres undefined) are 260 nM and 24 nM. For `C[C@@H]1CC2C(CCC3(C)C(O)CCC23)C2(C)CCCC=C12` (some centres undefined), the IC50 at Aromatase [1] was 1600 nM. Besides, at Aromatase [2], affinity was put at a Ki of 140 nM. With `CC[C@H]1CC2C(CCC3(C)C(O)CCC23)C2(C)CCCC=C12` (some centres undefined), half-maximal inhibition against Aromatase [1] (IC50) was put at 1300 nM. Further, the affinity on Aromatase [2] corresponds to a Ki of 180 nM. The corresponding values for `CC[C@@H]1CC2C(CCC3(C)C(O)CCC23)C2(C)CCCC=C12` (some centres undefined) are 3300 nM and 340 nM. Taken in the same sequence, the figures for `CC[C@@H]1CC2C3CCC(=O)C3(C)CCC2C2(C)CCCC=C12` (some centres undefined) were 320 nM and 43 nM. Taken in the same sequence, the figures for `C[C@H]1CC2C(CCC3(C)C(O)CCC23)C2(C)CCCC=C12` (some centres undefined) were 3700 nM and 380 nM.

As to `C[C@H]1CC2C3CCC(=O)C3(C)CCC2C2(C)CCCC=C12` (some centres undefined), at Aromatase [1], the concentration for half-maximal inhibition (IC50) was found to be 37 nM. The Ki on Aromatase [2] is 3.1 nM. The corresponding values for `CC12CCCC=C1CCC1C2CCC2(C)C1CC[C@@H]2O` (some centres undefined) are 360 nM and 45 nM. The corresponding values for `CO[C@H]1CC2C3CCC(=O)C3(C)CCC2C2(C)CCCC=C12` (some centres undefined) are 120 nM and 12 nM. Taken in the same sequence, the figures for `CCCCC[C@H]1CC2C3CCC(=O)C3(C)CCC2C2(C)CCCC=C12` (some centres undefined) were 9000 nM and 400 nM. On Aromatase [1], `C[C@@H]1CC2C3CCC(=O)C3(C)CCC2C2(C)CCCC=C12` (some centres undefined) gave a half-maximal inhibitory concentration (IC50) of 49 nM. Moreover, the affinity at Aromatase [2] corresponds to a Ki of 5.3 nM.

As for `CCCCC[C@H]1CC2C(CCC3(C)C(O)CCC23)C2(C)CCCC=C12` (some centres undefined), at Aromatase [1], the 50% inhibitory concentration (IC50) was over 50000 nM. In addition, at Aromatase [2], the affinity corresponds to a Ki of 44000 nM. Take `CCCCC[C@@H]1CC2C3CCC(=O)C3(C)CCC2C2(C)CCCC=C12` (some centres undefined): on Aromatase [1], the IC50 is 12000 nM. The compound further had a Ki at Aromatase [2] of 1200 nM.
